TGI and GI50 data for 24 compounds are collected here from PubChem BioAssay (NCI).

What all share (assay): NCI tumour cell line growth inhibition, 48 h
Assay [1] has as its system M14 melanoma.
In assay [2] the test system is NCI-H226 lung.
Assay [3] relates to SR leukemia.
Assay [4] relates to DU-145 prostate.
For assay [5], the system named is A549 NSCLC.
In assay [6] the test system is SF-539 CNS.
The test system of assay [7] is MCF7 breast.
Assay [8] deals with HCC-2998 colon.
Assay [9] deals with UACC-257 melanoma.
Assay [10] deals with OVCAR-4 ovarian.

Molecules are shown by their SMILES.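 96-well plates; 48 h exposure; 5 concentrations. Endpoints by linear interpolation between flanking doses. Not reached: highest tested concentration assigned. GI50 = concentration required for 50% inhibition of growth. TGI: total growth inhibition.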

On to `CN(C)CCCN1C(=S)N(CCCN(C)C)c2c3cc(O)ccc3nc3c([N+](=O)[O-])ccc1c23`, for which the TGI in assay [1] is 22.4 µM; in assay [2], 13.7 µM; in [3] it was > 22.5 µM; in assay [4], 16.5 µM; in assay [5], 9.73 µM; in assay [6], 17.1 µM. Further, the TGI in assay [7] is 6.77 µM; in [8], 8.02 µM; in [9], 21.2 µM; in assay [10], 10.9 µM.

Consider `O=C1CN2C(c3ccccc3)=NN(c3ccc([N+](=O)[O-])cc3)C2(c2ccccc2)c2cc(Cl)ccc2N1CC1CC1` (stereo not given), for which the TGI in [1], in [2], in [3], in assay [4], in assay [5] and in assay [6] was > 100 µM throughout. Besides, the TGI in assay [7], in assay [8], in [9] and in assay [10] was > 100 µM throughout.

Regarding `CC1CC[C@@]2(OC1)OC1C[C@H]3[C@@H]4CC[C@H]5CC(OC6OC(CO)C(OC7OC(CO)C(O)C(O)C7OC7OC(CO)C(O)C(O)C7O)C(O)C6O)CCC5(C)[C@H]4CCC3(C)C1[C@@H]2C` (stereo not given in full), the TGI amounted to 10.4 µM in [1]; 3.37 µM in assay [2]; 7.95 µM in assay [3]; 1.81 µM in assay [4]; 7.93 µM in assay [5]; 2.92 µM in assay [6]. Moreover, the TGI was 2.26 µM in assay [7], 2.06 µM in [8], 11.6 µM in assay [9] and 2.72 µM in assay [10].

Regarding `COc1cc2c(cc1-c1c(C)noc1C)cc(C)c(=O)n2Cc1ccccn1`, the GI50 was 0.797 µM in assay [1]; 1.59 µM in [2]; 0.709 µM in assay [3]; 12.6 µM in assay [4]; 1.76 µM in assay [5]; 0.983 µM in [6]. The GI50 was 0.333 µM in [7], 1.79 µM in assay [8], 2.18 µM in [9] and 1.33 µM in assay [10]. Also, the TGI was > 100 µM in [1]; > 100 µM in assay [2]; > 100 µM in assay [3]; > 100 µM in assay [4]; > 100 µM in [5]; 13.2 µM in [6]. Besides, the TGI in assay [7] is > 100 µM; in assay [8], 17.3 µM; in assay [9] it was > 100 µM; in assay [10], > 100 µM.

As for `C=CCn1c(=O)ccn(COCCO)c1=O`, the TGI in [1], in [2], in assay [3], in assay [4], in assay [5] and in assay [6] was > 100 µM throughout. The TGI in [7], in [8], in [9] and in [10] was > 100 µM in each case.

For the compound `CC(C)COP(=O)(OCC(C)C)C(NS(=O)(=O)c1ccccc1)(C(F)(F)F)C(F)(F)F`, the TGI in assay [1] came out at 43.2 µM; in [2], 39.9 µM; in assay [3] it was 38.1 µM; in assay [4] it was 29.8 µM; in [5], 14.4 µM; in [6], 29.1 µM. Moreover, the TGI in [7] is > 100 µM; in [8], 18.5 µM; in assay [9], 17.5 µM; in [10], 13.5 µM.

Consider `Oc1ccccc1/C=N/c1nc2cc3sc(/N=C/c4ccccc4O)nc3cc2s1`, for which the TGI in assay [1] was > 100 µM; in assay [2], 98.5 µM; in assay [3] it was > 42.1 µM; in assay [4] it was > 100 µM; in assay [5], > 100 µM; in [6] it was > 100 µM. The TGI in assay [7], in assay [8], in assay [9] and in assay [10] was > 100 µM in each case.

Take `CC12CC(=O)C3C(C(=O)C1)C32C` (stereo not given): the TGI in assay [1], in [2], in assay [3], in [4], in assay [5] and in assay [6] was > 100 µM in each case. The TGI in [7], in assay [8], in [9] and in assay [10] was > 100 µM in each case.

In the case of `Cc1ccccc1C(O)(c1nccn1C)c1nccn1C`, the TGI in assay [1], in [2], in [3], in assay [4], in assay [5] and in [6] was > 100 µM throughout. For the same compound, the TGI in assay [7], in [8], in assay [9] and in [10] was > 100 µM in each case.

For `O=C(/C=C/c1ccsc1)c1ccsc1`, the TGI in [1] was 66.4 µM; in [2], 39 µM; in assay [3] it was 46.5 µM; in assay [4], > 100 µM; in [5], > 100 µM; in assay [6] it was 37.9 µM. In addition, the TGI is 32.4 µM in assay [7], 35.6 µM in assay [8], 39.6 µM in assay [9] and > 100 µM in [10].

As for `CCN(CCO)CC1COc2ccccc2O1` (stereo not given), the TGI in assay [1], in [2], in assay [3], in assay [4], in assay [5] and in assay [6] was > 100 µM in each case. In addition, the TGI in assay [7], in assay [8], in [9] and in assay [10] was > 100 µM each time.

As to `Cc1c2c(n(CCc3ccc(Cl)cc3)c1C)NN=C(C#N)S2(=O)=O`, the TGI in assay [1], in assay [2], in assay [3], in assay [4], in assay [5] and in assay [6] was > 100 µM throughout. Moreover, the TGI in assay [7], in assay [8], in assay [9] and in assay [10] was > 100 µM in each case.

With `N#C/C(=C\c1cc(Br)c(O)c(Br)c1)c1cccnc1`, the TGI in assay [1] was > 100 µM; in [2], 91.4 µM; in [3] it was 76.5 µM; in assay [4], > 100 µM; in assay [5], > 100 µM; in assay [6], 71.5 µM. The TGI in assay [7] is > 100 µM; in assay [8], > 100 µM; in assay [9] it was 73.5 µM; in assay [10] it was > 100 µM.

As for `CC(C)/C(Cl)=N\OC(=O)Nc1ccc(C#N)cc1`, the TGI in assay [1] was 7.85 µM; in assay [2] it was 27.2 µM; in assay [3], > 25.6 µM; in [4] it was 32.2 µM; in [5] it was 39.9 µM; in assay [6] it was 29.4 µM. In addition, the TGI was determined as 22.4 µM in assay [7], 29.9 µM in assay [8], 25.3 µM in [9] and 3.24 µM in [10].

Turning to `Cc1csc(-c2cn(C)c3c2C(=O)C(N)=CC3=O)n1`, the TGI is > 47.4 µM in assay [1]; > 80.1 µM in assay [2]; 19.5 µM in [3]; > 100 µM in assay [4]; 8.76 µM in assay [5]; > 100 µM in assay [6]. The TGI in [7] was > 100 µM; in assay [8], > 100 µM; in assay [9] it was 32.6 µM; in [10], > 100 µM.

Turning to `CCN(CC)CCOc1ccc(N2C(=O)c3cc(OC)c(OC)cc3C2=O)cc1`, the TGI in [1], in assay [2], in assay [3], in assay [4], in assay [5] and in [6] was > 100 µM in each case. In addition, the TGI in [7], in [8], in assay [9] and in [10] was > 100 µM throughout.

For `CCOC(=N)n1c(=O)n(C2=NCCN2)c2ccccc21`, the TGI in assay [1], in [2], in assay [3], in assay [4], in assay [5] and in [6] was > 100 µM in each case. The TGI in [7], in assay [8], in [9] and in [10] was > 100 µM each time.

With `CCCNC(=O)CCC(C)[C@H]1CCC2C3C(C[C@H](OC(C)=O)[C@@]21C)[C@@]1(C)CCC2(C[C@H]1C[C@H]3OC(C)=O)OOC1(CCC(C)CC1)OO2` (stereo not given in full), the TGI in [1] is > 100 µM; in assay [2] it was > 100 µM; in assay [3] it was 36.5 µM; in [4] it was 21.2 µM; in assay [5] it was 5.26 µM; in [6] it was 33.8 µM. Besides, the TGI in [7] is > 100 µM; in [8], 79.1 µM; in [9], 90.9 µM; in assay [10] it was 33.9 µM.

On to `O=C1C[C@H](Sc2ccccc2)C2(OCCO2)[C@@H](Sc2ccccc2)C1`, for which the TGI in assay [1] was 6.52 µM; in assay [2], 6.03 µM; in assay [3], 1.22 µM; in [4], 14.1 µM; in [5], 28 µM; in [6] it was 4.05 µM. Further, the TGI is 6.01 µM in assay [7], 6.42 µM in [8], 4.51 µM in [9] and 28.4 µM in assay [10].

For the compound `COc1cc(C2CC(C)(Nc3ccccc3)Oc3cc4c(cc32)OCO4)cc(OC)c1OC` (stereo not given), the TGI was > 63.1 µM in assay [1]; 7.12 µM in assay [2]; > 60.7 µM in [3]; 6.13 µM in [4]; > 100 µM in assay [5]; 0.477 µM in assay [6]. The TGI was > 51.5 µM in [7], 3.98 µM in assay [8], > 85.2 µM in [9] and > 78.5 µM in assay [10].

As to `COc1ccc(C2(CC(C)O)SCCCS2)cc1` (stereo not given), the TGI in assay [1], in assay [2], in assay [3], in assay [4], in [5] and in assay [6] was > 100 µM in each case. The TGI in [7], in [8], in [9] and in assay [10] was > 100 µM each time.

Take `Nc1c(-c2cccc3ccccc23)c2ccc([N+](=O)[O-])cc2c(=O)n1-c1nc2ccccc2s1`: the TGI was > 38.9 µM in assay [1]; 16.3 µM in assay [2]; > 100 µM in [3]; > 100 µM in [4]; > 53.4 µM in assay [5]; 14.8 µM in assay [6]. The TGI in [7] is 7.84 µM; in assay [8], > 100 µM; in [9], > 80.8 µM; in assay [10] it was > 53.5 µM.

As for `COC(=O)[C@]12CC[C@H]3CN(C(=O)OCc4ccccc4)[C@H]([C@H]31)[C@H](c1ccco1)N2S(=O)(=O)c1ccc(C)cc1`, the TGI in [1] is 44.6 µM; in assay [2], 58.7 µM; in assay [3] it was 81 µM; in assay [4] it was > 100 µM; in [5], > 100 µM; in [6] it was > 100 µM. In addition, the TGI in assay [7] is 42 µM; in [8], 34.5 µM; in assay [9], 50.9 µM; in assay [10] it was > 100 µM.

As for `C/C(CC1C2CCCC1C2)=N\NC(N)=O` (stereo not given), the TGI in [1], in [2], in assay [3], in [4], in assay [5] and in assay [6] was > 100 µM in each case. Besides, the TGI in assay [7], in assay [8], in assay [9] and in [10] was > 100 µM in each case.
